Data: patent US20230365576A1, “BRM Targeting Compounds And Associated Methods Of Use” (Prelude Therapeutics Incorporated, priority 2022, published 2023)

How the values were obtained:
[1] = molecular target: T1, SMARCA4 (Homo sapiens, UniProt P51532); test: SMARCA4 HiBiT degradation assay in HeLa cells; assay type: cell-based; conditions: 18 hours; for Dmax: HeLa
T1 construct: SMARCA4-HiBiT knock-in Hela monoclonal cell (CS3023226) were purchased from Promega; host or cells: HeLa (CRISPR HiBiT knock-in monoclonal line, heterozygous)
T1 sequence (P51532 whole entry): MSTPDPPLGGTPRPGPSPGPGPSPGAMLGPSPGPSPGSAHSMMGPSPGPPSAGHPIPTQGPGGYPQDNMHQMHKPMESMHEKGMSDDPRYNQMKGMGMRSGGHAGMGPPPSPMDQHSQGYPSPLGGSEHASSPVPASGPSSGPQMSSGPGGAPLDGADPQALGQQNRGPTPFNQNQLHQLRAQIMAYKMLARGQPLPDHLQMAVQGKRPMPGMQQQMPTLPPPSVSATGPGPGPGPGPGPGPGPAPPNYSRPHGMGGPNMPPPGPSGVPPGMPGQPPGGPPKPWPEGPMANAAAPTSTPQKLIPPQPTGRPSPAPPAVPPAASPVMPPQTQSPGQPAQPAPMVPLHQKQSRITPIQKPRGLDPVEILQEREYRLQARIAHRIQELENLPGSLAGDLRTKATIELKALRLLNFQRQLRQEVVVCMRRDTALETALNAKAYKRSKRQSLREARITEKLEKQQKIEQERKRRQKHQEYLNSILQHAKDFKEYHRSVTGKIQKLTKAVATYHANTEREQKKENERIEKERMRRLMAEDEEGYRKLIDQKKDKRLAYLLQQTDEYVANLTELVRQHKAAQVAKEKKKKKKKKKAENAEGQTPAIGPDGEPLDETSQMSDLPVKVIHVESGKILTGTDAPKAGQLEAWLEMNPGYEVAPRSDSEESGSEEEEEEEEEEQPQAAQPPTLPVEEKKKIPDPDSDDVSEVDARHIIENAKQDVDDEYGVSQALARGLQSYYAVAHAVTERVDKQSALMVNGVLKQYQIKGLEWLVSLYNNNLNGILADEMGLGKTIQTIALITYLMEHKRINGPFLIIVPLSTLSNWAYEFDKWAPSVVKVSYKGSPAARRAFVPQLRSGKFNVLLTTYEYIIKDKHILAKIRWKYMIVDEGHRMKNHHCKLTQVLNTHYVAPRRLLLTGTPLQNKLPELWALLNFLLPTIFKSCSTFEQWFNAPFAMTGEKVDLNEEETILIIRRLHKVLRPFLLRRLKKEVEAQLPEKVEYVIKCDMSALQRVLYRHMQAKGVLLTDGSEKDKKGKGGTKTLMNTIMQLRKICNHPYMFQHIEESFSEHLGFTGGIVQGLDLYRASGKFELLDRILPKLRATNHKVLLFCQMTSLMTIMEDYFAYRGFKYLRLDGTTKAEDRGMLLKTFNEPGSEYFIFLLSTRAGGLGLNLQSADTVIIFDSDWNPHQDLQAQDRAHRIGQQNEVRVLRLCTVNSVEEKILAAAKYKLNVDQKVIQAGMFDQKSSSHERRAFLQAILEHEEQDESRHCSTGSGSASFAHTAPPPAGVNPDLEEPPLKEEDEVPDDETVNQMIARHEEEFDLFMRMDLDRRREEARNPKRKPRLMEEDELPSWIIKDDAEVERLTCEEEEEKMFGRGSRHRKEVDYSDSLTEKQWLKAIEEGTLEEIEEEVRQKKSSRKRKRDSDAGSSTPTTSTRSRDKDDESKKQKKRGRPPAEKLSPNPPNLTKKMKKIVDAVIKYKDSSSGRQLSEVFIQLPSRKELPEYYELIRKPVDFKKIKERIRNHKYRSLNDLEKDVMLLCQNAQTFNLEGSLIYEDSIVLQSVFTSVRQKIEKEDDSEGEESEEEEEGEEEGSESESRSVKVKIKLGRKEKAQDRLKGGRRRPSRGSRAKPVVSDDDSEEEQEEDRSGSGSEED
Protocol: (§1) Example A. SMARCA2 HiBiT and SMARCA4 HiBiT Degradation Assay
(§2) Preparation of SMARCA2/4-HiBiT Knock-In Cells
(§3) HiBiT peptide knock-in of SMARCA2 in LgBiT expressing HEK293T cells was performed by CRISPR-mediated tagging system as described Promega. The homozygous HiBiT knock-in on c-terminus SMARCA2 was confirmed by sanger sequence. SMARCA2-HiBiT knock-in Hela monoclonal cell (CS302366) and SMARCA4-HiBiT knock-in Hela monoclonal cell (CS3023226) were purchased from Promega. The heterozygous HiBiT-knock-in was confirmed by sanger sequence in both SMARCA2-HiBiT and SMARCA4-HiBiT monoclonal cells.
(§4) SMARCA2 HiBiT and SMARCA4 HiBiT Degradation Assay in HeLa Cells
(§5) Compounds were dissolved in DMSO to make 10 mM stock and 3-fold series dilutions were further conducted keeping the highest concentration 10 μM. NCIH1693 and NCIH520 cells were maintained in PRMI 1640 medium (Corning Cellgro, Catalog #:10-040-CV) supplemented with 10% v/v FBS (GE Healthcare, Catalog #: SH30910.03) by splitting 1:3 twice a week.
(§6) Dispense 10 ul aliquot of prepared Hela-SMARCA2-HiBiT or Hela-SMARCA4-HiBiT cells (1:1 ratio of cells:Trypan Blue (#1450013, Bio-Rad)) onto cell counting slide (#145-0011, Bio-Rad) and obtain cell density and cell viability using cell counter (TC20, Bio-Rad). Remove appropriate volume of resuspended cells from culture flask to accommodate 2500 cells/well @ 20 μL/well. Transfer Hela-HiBiT cells to 50 mL conical (#430290, Corning). Spin down at 1000 rpm for 5 min using tabletop centrifuge (SPINCHRON 15, Beckman). Discard supernatant and resuspend cell pellet in modified EMEM (#30-2003, ATCC) cell culture media containing 10% FBS (F2422-500ML, Sigma), and 1X Penicillin/Streptomycin (200 g/L) (30-002-CI, Corning) to a cell density of 125,000 cells/mL. Dispense 20 μL of resuspended Hela-HiBit cells per well in 384-well TC treated plate (#12-565-343, Thermo Scientific) using standard cassette (#50950372, Thermo Scientific) on Multidrop Combi (#5840310, Thermo Scientific) inside laminar flow cabinet. Dispense test compounds onto plates using digital liquid dispenser (D300E, Tecan). Incubate plates in humidified tissue culture incubator @37° C. for 18 hours. Add 20 μL of prepared Nano-Glo® HiBiT Lytic detection buffer (N3050, Promega) to each well of 384-well plate using small tube cassette (#24073295, Thermo Scientific) on Multidrop Combi, incubate @ RT for 30-60 min. Read plates on microplate reader (Envision 2105, PerkinElmer) using 384 well Ultra-Sensitive luminescence mode. Raw data files and compound information reports are swept into centralized data lake and deconvoluted using automated scripts designed by TetraScience, Inc. Data analysis, curve-fitting and reporting done in Dotmatics Informatics Suite using Screening Ultra module.

[2] = molecular target: T2, SMARCA2 (Homo sapiens, UniProt P51531); test: SMARCA2 HiBiT degradation assay in HeLa cells; assay type: cell-based; conditions: 18 hours; for DC50: read-out: SMARCA2 IC50; for Dmax: HeLa
T2 construct: SMARCA2-HiBiT knock-in Hela monoclonal cell (CS302366); host or cells: HeLa (CRISPR HiBiT knock-in monoclonal line, heterozygous)
T2 sequence (P51531 whole entry): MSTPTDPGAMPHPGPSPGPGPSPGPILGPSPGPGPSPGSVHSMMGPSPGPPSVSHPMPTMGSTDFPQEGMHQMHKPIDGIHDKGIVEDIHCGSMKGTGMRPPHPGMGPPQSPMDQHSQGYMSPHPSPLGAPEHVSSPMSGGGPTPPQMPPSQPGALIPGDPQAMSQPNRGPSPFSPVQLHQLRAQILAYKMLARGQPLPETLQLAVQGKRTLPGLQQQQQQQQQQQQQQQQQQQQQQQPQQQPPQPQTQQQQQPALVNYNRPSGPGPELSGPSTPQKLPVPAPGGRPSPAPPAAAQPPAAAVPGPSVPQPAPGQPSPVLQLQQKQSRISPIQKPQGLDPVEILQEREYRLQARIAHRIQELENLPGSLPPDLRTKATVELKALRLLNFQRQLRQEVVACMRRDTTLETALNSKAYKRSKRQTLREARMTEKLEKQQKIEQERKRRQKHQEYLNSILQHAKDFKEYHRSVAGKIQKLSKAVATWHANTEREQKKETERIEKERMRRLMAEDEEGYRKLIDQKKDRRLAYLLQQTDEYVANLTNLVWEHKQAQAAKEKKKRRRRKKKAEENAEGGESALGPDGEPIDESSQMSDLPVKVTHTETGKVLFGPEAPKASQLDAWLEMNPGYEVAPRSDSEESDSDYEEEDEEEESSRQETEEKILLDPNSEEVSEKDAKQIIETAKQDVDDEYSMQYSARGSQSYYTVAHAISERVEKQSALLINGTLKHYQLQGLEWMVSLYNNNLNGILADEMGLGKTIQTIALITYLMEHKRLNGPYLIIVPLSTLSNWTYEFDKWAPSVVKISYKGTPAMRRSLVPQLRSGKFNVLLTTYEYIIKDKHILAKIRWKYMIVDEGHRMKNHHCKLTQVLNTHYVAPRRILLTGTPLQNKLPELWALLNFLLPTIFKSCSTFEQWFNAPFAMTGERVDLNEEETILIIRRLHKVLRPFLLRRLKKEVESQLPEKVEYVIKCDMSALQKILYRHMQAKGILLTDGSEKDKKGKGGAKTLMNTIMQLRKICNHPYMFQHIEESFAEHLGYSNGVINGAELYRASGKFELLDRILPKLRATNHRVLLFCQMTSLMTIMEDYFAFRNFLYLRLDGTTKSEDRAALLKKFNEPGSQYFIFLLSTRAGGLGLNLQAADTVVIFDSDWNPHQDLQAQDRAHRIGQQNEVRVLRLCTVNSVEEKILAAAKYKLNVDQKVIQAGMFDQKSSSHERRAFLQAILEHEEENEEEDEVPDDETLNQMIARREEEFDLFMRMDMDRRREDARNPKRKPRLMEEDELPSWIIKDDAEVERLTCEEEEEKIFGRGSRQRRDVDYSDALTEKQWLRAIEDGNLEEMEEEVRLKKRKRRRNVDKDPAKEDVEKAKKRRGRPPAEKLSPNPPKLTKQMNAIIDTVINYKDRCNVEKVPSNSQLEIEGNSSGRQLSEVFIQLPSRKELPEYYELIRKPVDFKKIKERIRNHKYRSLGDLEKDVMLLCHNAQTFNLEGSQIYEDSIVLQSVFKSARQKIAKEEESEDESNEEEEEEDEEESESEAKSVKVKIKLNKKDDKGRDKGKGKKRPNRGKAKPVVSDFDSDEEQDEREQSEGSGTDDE
Protocol: as §1, §2, §3, §4, §5, §6

**Q.** Which results are given for CCC12CNc3nnc(-c4cccc(F)c4O)cc3N1CCN(C(=O)N1CCN(CC3CCN(c4ccc5c(c4)C(=O)N(C4CCC(=O)NC4=O)C5)CC3)CC1(C)C)C2 (single isomer, unassigned) [Example 80, 3-(6-(4-((4-(6a-ethyl-2-(3-fluoro-2-hydroxyphenyl)-6,6a,7,8,9,10-hexahydro-5H-pyrazino-[1′,2′:4,5]pyrazino[2,3-c]pyridazine-8-carbonyl)-3,3-dimethylpiperazin-1-yl)methyl)-piperidin-1-yl)-1-oxoisoindolin-2-yl)piperidine-2,6-dione]?
**A.** DC50 [1]: < 100 nM; SMARCA4 DMax % [1]: B (B=50%<Dmax≤75%); SMARCA2 DMax % [2]: A (A=Dmax>75%); DC50 [2]: < 100 nM

**Q.** With CCC12CNc3nnc(-c4cccc(F)c4O)cc3N1CCN(C(=O)N1[C@@H](C)CN(CC3CCN(c4ccc5c(c4)C(=O)N(C4CCC(=O)NC4=O)C5)CC3)C[C@@H]1C)C2 (single isomer, unassigned) [Example 81] as the molecule, how does the DC50 [1] read?
**A.** Its DC50 is 100 to 1000 nM.

**Q.** What about the Dmax [1] of the same molecule?
**A.** Its Dmax is less than 50%.

**Q.** And the DC50 [2]?
**A.** Its DC50 is less than 100 nM.

**Q.** And the Dmax [2]?
**A.** The Dmax was greater than 75%.

**Q.** For CCC12CNc3nnc(-c4cccc(F)c4O)cc3N1CCN(C(=O)N1[C@H](C)CN(CC3CCN(c4ccc5c(c4)C(=O)N(C4CCC(=O)NC4=O)C5)CC3)C[C@H]1C)C2 (single isomer, unassigned) [Example 82], which DC50 [1] is on record?
**A.** Its DC50 is less than 100 nM.

**Q.** And the “SMARCA4 DMax %” value [1]?
**A.** Its value is “A (A=Dmax>75%)”.

**Q.** And the DC50 [2]?
**A.** The DC50 was less than 100 nM.

**Q.** What about the Dmax [2] of the same molecule?
**A.** The Dmax was greater than 75%.

**Q.** What does the source list for CCC12CNc3nnc(-c4cccc(F)c4O)cc3N1CCN(C(=O)N1[C@H](C)CN(CC3CCN(c4ccc5c(c4)C(=O)N(C4CCC(=O)NC4=O)C5)CC3)C[C@H]1C)C2 (single isomer, unassigned) [Example 83]?
**A.** DC50 [1]: < 100 nM; SMARCA4 DMax % [1]: B (B=50%<Dmax≤75%); SMARCA2 DMax % [2]: A (A=Dmax>75%); DC50 [2]: < 100 nM

**Q.** For CCC12CNc3nnc(-c4cccc(F)c4O)cc3N1CCN(C(=O)N1C[C@H](C)N(CC3CCN(c4ccc5c(c4)C(=O)N(C4CCC(=O)NC4=O)C5)CC3)C[C@H]1C)C2 (single isomer, unassigned) [Example 84], which DC50 [1] is on record?
**A.** The DC50 was less than 100 nM.

**Q.** What about the Dmax [1] of the same molecule?
**A.** The Dmax was 50 to 75%.

**Q.** And the DC50 [2]?
**A.** The DC50 was less than 100 nM.

**Q.** What about the Dmax [2] of the same molecule?
**A.** The Dmax was greater than 75%.

**Q.** Which DC50 [1] does the source give for CCC12CNc3nnc(-c4cc(F)cc(F)c4O)cc3N1CCN(C(=O)N1[C@H](C)CN(CC3CCN(c4ccc5c(c4)C(=O)N(C4CCC(=O)NC4=O)C5)CC3)C[C@@H]1C)C2 (single isomer, unassigned) [Example 85] here?
**A.** Its DC50 is less than 100 nM.

**Q.** And the DC50 [2]?
**A.** Its DC50 is less than 100 nM.

**Q.** How did the DC50 [1] turn out when CCC12CNc3nnc(-c4cccc(F)c4O)cc3N1CCN(C(=O)N1[C@H](C)CN(CC3CCN(c4ccc5c(c4)C(=O)N(C4CCC(=O)NC4=O)C5)CC3)C[C@@H]1C)C2 (single isomer, unassigned) [Example 86] was run?
**A.** Its DC50 is less than 100 nM.

**Q.** And the “SMARCA4 DMax %” value [1]?
**A.** Its value is “A (A=Dmax>75%)”.

**Q.** And the “SMARCA2 DMax %” value [2]?
**A.** The value was “A (A=Dmax>75%)”.

**Q.** What about the DC50 [2] of the same molecule?
**A.** Its DC50 is less than 100 nM.

**Q.** How did the DC50 [1] turn out when CCC12CNc3nnc(-c4cc(F)cc(F)c4O)cc3N1CCN(C(=O)N1[C@H](C)CN(CC3CCN(c4ccc5c(c4)C(=O)N(C4CCC(=O)NC4=O)C5)CC3)C[C@@H]1C)C2 (single isomer, unassigned) [Example 87] was run?
**A.** The DC50 was less than 100 nM.

**Q.** And the DC50 [2]?
**A.** The DC50 was less than 100 nM.

**Q.** Which results are given for CCC12CNc3nnc(-c4cccc(F)c4O)cc3N1CCN(C(=O)N1[C@H](C)CN(CC3CCN(c4ccc5c(c4)C(=O)N(C4CCC(=O)NC4=O)C5)CC3)C[C@@H]1C)C2 (single isomer, unassigned) [Example 88]?
**A.** DC50 [1]: < 100 nM; SMARCA4 DMax % [1]: A (A=Dmax>75%); SMARCA2 DMax % [2]: A (A=Dmax>75%); DC50 [2]: < 100 nM

**Q.** For CC1(C)CN(CC2CCN(c3ccc4c(c3)C(=O)N([C@H]3CCC(=O)NC3=O)C4)CC2)CCN1C(=O)N1CCN2c3cc(-c4cccc(F)c4O)nnc3NCC2(CF)C1 (single isomer, unassigned) [Example 89], which DC50 [1] is on record?
**A.** Its DC50 is 100 to 1000 nM.

**Q.** What about the Dmax [1] of the same molecule?
**A.** Its Dmax is less than 50%.

**Q.** What about the DC50 [2] of the same molecule?
**A.** Its DC50 is less than 100 nM.

**Q.** And the Dmax [2]?
**A.** The Dmax was greater than 75%.

**Q.** With CC1(C)CN(CC2CCN(c3ccc4c(c3)C(=O)N([C@H]3CCC(=O)NC3=O)C4)CC2)CCN1C(=O)N1CCN2c3cc(-c4cccc(F)c4O)nnc3NCC2(CF)C1 (single isomer, unassigned) [Example 90] as the molecule, how does the DC50 [1] read?
**A.** The DC50 was greater than 1000 nM.

**Q.** What about the “SMARCA4 DMax %” value [1] of the same molecule?
**A.** Its value is “C (C=Dmax<50%)”.

**Q.** What about the “SMARCA2 DMax %” value [2] of the same molecule?
**A.** The value was “A (A=Dmax>75%)”.

**Q.** What about the DC50 [2] of the same molecule?
**A.** Its DC50 is less than 100 nM.
